Laboratory results as given in patent US20080200454A1, “CARBON-LINKED TETRAHYDRO-PYRAZOLO-PYRIDINE MODULATORS OF CATHEPSIN S” (priority 2007, published 2008).
Where two headings read alike, the source gives them in different places.

Target: Recombinant human cathepsin S (CatS) (Homo sapiens, UniProt P25774)
Assay: Recombinant human cathepsin S (CatS) inhibition assay, fluorogenic substrate Z-Valine-Valine-Arginine-AMC;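 note: Baculovirus-expressed CatS in pH 5.0 sodium acetate buffer with DTT and NaCl, fluorescence read each minute over 20 min, inhibition derived from rate slope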

Chain of Recombinant human cathepsin S (CatS) (P25774 115-331): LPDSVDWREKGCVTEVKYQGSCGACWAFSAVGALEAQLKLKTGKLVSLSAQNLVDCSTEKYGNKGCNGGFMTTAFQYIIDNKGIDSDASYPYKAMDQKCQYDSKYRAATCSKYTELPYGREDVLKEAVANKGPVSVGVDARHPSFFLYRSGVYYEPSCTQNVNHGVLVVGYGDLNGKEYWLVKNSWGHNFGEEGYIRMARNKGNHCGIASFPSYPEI

IC50 [nM] | Structure (SMILES) | IC50 (CatS IC50) [nM] | also measured
200 | CS(=O)(=O)N1CCc2c(c(-c3ccc(Cl)c(C#Cc4ccc(CN[C@@H]5Cc6ccccc6[C@@H]5O)cc4)c3)nn2CCCN2CCOCC2)C1 [Example 445, (1S,2R)-2-({[4-({2-Chloro-5-[5-(methylsulfonyl)-1-(3-morpholin-4-ylpropyl)-4,5,6,7-tetrahydro-1H-pyrazolo[4,3-c]pyridin-3-yl]phenyl}ethynyl)phenyl]methyl}amino)-2,3-dihydro-1H-inden-1-ol] | – | –
– | CS(=O)(=O)N1CCc2c(c(-c3ccc(Cl)c(C#Cc4cccc(CNCc5ccc(Cl)cc5)c4)c3)nn2CCCN2CCN(c3ccccc3)CC2)C1 [Example 446, 1-{3-[(2-Chloro-5-{5-(methylsulfonyl)-1-[3-(4-phenylpiperazin-1-yl)propyl]-4,5,6,7-tetrahydro-1H-pyrazolo[4,3-c]pyridin-3-yl}phenyl)ethynyl]phenyl}-N-[(4-chlorophenyl)methyl]methanamine] | 70 | –
– | CS(=O)(=O)N1CCc2c(c(-c3ccc(Cl)c(C#Cc4cccc(CNCc5ccc(Cl)cc5)c4)c3)nn2CCCN2CCN(c3ccccn3)CC2)C1 [Example 447, 1-{3-[(2-Chloro-5-{5-(methylsulfonyl)-1-[3-(4-pyridin-2-ylpiperazin-1-yl)propyl]-4,5,6,7-tetrahydro-1H-pyrazolo[4,3-c]pyridin-3-yl}phenyl)ethynyl]phenyl}-N-[(4-chlorophenyl)methyl]methanamine] | 70 | –
10 | CS(=O)(=O)N1CCc2c(c(-c3ccc(Cl)c(C#Cc4ccc(Cl)cc4)c3)nn2C[C@@H](O)CN2CCC(C3CCNCC3)CC2)C1 [Example 448, (2S)-1-(4,4′-Bipiperidin-1-yl)-3-[3-{4-chloro-3-[(4-chlorophenyl)ethynyl]phenyl}-5-(methylsulfonyl)-4,5,6,7-tetrahydro-1H-pyrazolo[4,3-c]pyridin-1-yl]propan-2-ol] | – | –
100 | NC(=O)C(=O)N1CCc2c(c(-c3ccc(Cl)c(C#Cc4ccc(CNCc5ccc(Cl)cc5)cc4)c3)nn2CCCN2CCCCC2)C1 [Example 449, 2-[3-(4-Chloro-3-{[4-({[(4-chlorophenyl)methyl]amino}methyl)phenyl]ethynyl}phenyl)-1-(3-piperidin-1-ylpropyl)-1,4,6,7-tetrahydro-5H-pyrazolo[4,3-c]pyridin-5-yl]-2-oxoacetamide] | – | –
– | NC(=O)C(=O)N1CCc2c(c(-c3ccc(Cl)c(C#Cc4ccc(CNCc5ccc(Cl)cc5)cc4)c3)nn2CCCN2CCC(C(N)=O)CC2)C1 [Example 450, 1-(3-{5-[Amino(oxo)acetyl]-3-(4-chloro-3-{[4-({[(4-chlorophenyl)methyl]amino}methyl)phenyl]ethynyl}phenyl)-4,5,6,7-tetrahydro-1H-pyrazolo[4,3-c]pyridin-1-yl}propyl)piperidine-4-carboxamide] | 70 | –
– | NC(=O)C(=O)N1CCc2c(c(-c3ccc(Cl)c(C#Cc4ccc(CNCc5ccc(Cl)cc5)cc4)c3)nn2CCCN2CCC3(CC2)OCCO3)C1 [Example 451, 2-{3-(4-Chloro-3-{[4-({[(4-chlorophenyl)methyl]amino}methyl)phenyl]ethynyl}phenyl)-1-[3-(1,4-dioxa-8-azaspiro[4.5]dec-8-yl)propyl]-1,4,6,7-tetrahydro-5H-pyrazolo[4,3-c]pyridin-5-yl}-2-oxoacetamide] | 100 | –
100 | NC(=O)C(=O)N1CCc2c(c(-c3ccc(Cl)c(C#Cc4ccc(CNCc5ccc(Cl)cc5)cc4)c3)nn2CCCN2CCC(C(F)(F)F)CC2)C1 [Example 452, 2-[3-(4-Chloro-3-{[4-({[(4-chlorophenyl)methyl]amino}methyl)phenyl]ethynyl}phenyl)-1-{3-[4-(trifluoromethyl)piperidin-1-yl]propyl}-1,4,6,7-tetrahydro-5H-pyrazolo[4,3-c]pyridin-5-yl]-2-oxoacetamide] | – | –
– | NC(=O)N1CCc2c(c(-c3ccc(Cl)c(C#Cc4ccc(CNCc5ccc(Cl)cc5)cc4)c3)nn2CCCN2CCCC2)C1 [Example 453, 3-(4-Chloro-3-{[4-({[(4-chlorophenyl)methyl]amino}methyl)phenyl]ethynyl}phenyl)-1-(3-pyrrolidin-1-ylpropyl)-1,4,6,7-tetrahydro-5H-pyrazolo[4,3-c]pyridine-5-carboxamide] | 140 | –
40 | NC(=O)N1CCc2c(c(-c3ccc(Cl)c(C#Cc4ccc(CNCc5ccc(Cl)cc5)cc4)c3)nn2CCCN2CCN(c3cccc[n+]3[O-])CC2)C1 [Example 454, 3-(4-Chloro-3-{[4-({[(4-chlorophenyl)methyl]amino}methyl)phenyl]ethynyl}phenyl)-1-{3-[4-(1-oxidopyridin-2-yl)piperazin-1-yl]propyl}-1,4,6,7-tetrahydro-5H-pyrazolo[4,3-c]pyridine-5-carboxamide] | – | –
40 | NC(=O)N1CCc2c(c(-c3ccc(Cl)c(C#Cc4ccc(CNCc5ccc(Cl)cc5)cc4)c3)nn2CCCN2CCC(C(F)(F)F)CC2)C1 [Example 455, 3-(4-Chloro-3-{[4-({[(4-chlorophenyl)methyl]amino}methyl)phenyl]ethynyl}phenyl)-1-{3-[4-(trifluoromethyl)piperidin-1-yl]propyl}-1,4,6,7-tetrahydro-5H-pyrazolo[4,3-c]pyridine-5-carboxamide] | – | –
– | CS(=O)(=O)N1CCc2c(c(-c3ccc(Cl)c(C#Cc4ccc(CNCc5nccs5)cc4)c3)nn2CCCN2CCOCC2)C1 [Example 456, 1-[4-({2-Chloro-5-[5-(methylsulfonyl)-1-(3-morpholin-4-ylpropyl)-4,5,6,7-tetrahydro-1H-pyrazolo[4,3-c]pyridin-3-yl]phenyl}ethynyl)phenyl]-N-(1,3-thiazol-2-ylmethyl)methanamine] | 120 | –
– | Cn1cncc1CNCc1ccc(C#Cc2cc(-c3nn(CCCN4CCOCC4)c4c3CN(S(C)(=O)=O)CC4)ccc2Cl)cc1 [Example 457, 1-[4-({2-Chloro-5-[5-(methylsulfonyl)-1-(3-morpholin-4-ylpropyl)-4,5,6,7-tetrahydro-1H-pyrazolo[4,3-c]pyridin-3-yl]phenyl}ethynyl)phenyl]-N-[(1-methyl-1H-imidazol-5-yl)methyl]methanamine] | 90 | –
60 | NC(=O)N1CCc2c(c(-c3ccc(Cl)c(C#Cc4ccc(CNCc5ccc(Cl)cc5)cc4)c3)nn2CCCN2CCCCC2)C1 [Example 458, 3-(4-Chloro-3-{[4-({[(4-chlorophenyl)methyl]amino}methyl)phenyl]ethynyl}phenyl)-1-(3-piperidin-1-ylpropyl)-1,4,6,7-tetrahydro-5H-pyrazolo[4,3-c]pyridine-5-carboxamide] | – | –
– | CC(=O)NC1CCN(CCCn2nc(-c3ccc(Cl)c(C#Cc4ccc(CNCc5ccc(Cl)cc5)cc4)c3)c3c2CCN(C(N)=O)C3)CC1 [Example 459, 1-{3-[4-(Acetylamino)piperidin-1-yl]propyl}-3-(4-chloro-3-{[4-({[(4-chlorophenyl)methyl]amino}methyl)phenyl]ethynyl}phenyl)-1,4,6,7-tetrahydro-5H-pyrazolo[4,3-c]pyridine-5-carboxamide] | 20 | –
– | NC(=O)N1CCc2c(c(-c3ccc(Cl)c(C#Cc4ccc(CNCc5ccc(Cl)cc5)cc4)c3)nn2CCCN2CCN(C3CCC3)CC2)C1 [Example 460, 3-(4-Chloro-3-{[4-({[(4-chlorophenyl)methyl]amino}methyl)phenyl]ethynyl}phenyl)-1-[3-(4-cyclobutylpiperazin-1-yl)propyl]-1,4,6,7-tetrahydro-5H-pyrazolo[4,3-c]pyridine-5-carboxamide] | 170 | –
30 | NC(=O)C1CCN(CCCn2nc(-c3ccc(Cl)c(C#Cc4ccc(CNCc5ccc(Cl)cc5)cc4)c3)c3c2CCN(C(N)=O)C3)CC1 [Example 461, 1-{3-[4-(Aminocarbonyl)piperidin-1-yl]propyl}-3-(4-chloro-3-{[4-({[(4-chlorophenyl)methyl]amino}methyl)phenyl]ethynyl}phenyl)-1,4,6,7-tetrahydro-5H-pyrazolo[4,3-c]pyridine-5-carboxamide] | – | –
– | NC(=O)N1CCc2c(c(-c3ccc(Cl)c(C#Cc4ccc(CNCc5ccc(Cl)cc5)cc4)c3)nn2CCCN2CCC3(CC2)OCCO3)C1 [Example 462, 3-(4-Chloro-3-{[4-({[(4-chlorophenyl)methyl]amino}methyl)phenyl]ethynyl}phenyl)-1-[3-(1,4-dioxa-8-azaspiro[4.5]dec-8-yl)propyl]-1,4,6,7-tetrahydro-5H-pyrazolo[4,3-c]pyridine-5-carboxamide] | 50 | –
– | NC(=O)N1CCc2c(c(-c3ccc(Cl)c(C#Cc4ccc(CNCc5ccc(Cl)cc5)cc4)c3)nn2CCCN2CCN(C3CC3)CC2)C1 [Example 463, 3-(4-Chloro-3-{[4-({[(4-chlorophenyl)methyl]amino}methyl)phenyl]ethynyl}phenyl)-1-[3-(4-cyclopropylpiperazin-1-yl)propyl]-1,4,6,7-tetrahydro-5H-pyrazolo[4,3-c]pyridine-5-carboxamide] | 110 | –
– | CC(C)(C)OC(=O)N1Cc2cc(C#Cc3cc(-c4nn(CCCN5CCOCC5)c5c4CN(S(C)(=O)=O)CC5)ccc3Cl)ccc2C[C@H]1C(=O)O [Example 464, (3S)-7-({2-Chloro-5-[5-(methylsulfonyl)-1-(3-morpholin-4-ylpropyl)-4,5,6,7-tetrahydro-1H-pyrazolo[4,3-c]pyridin-3-yl]phenyl}ethynyl)-2-{[(1,1-dimethylethyl)oxy]carbonyl}-1,2,3,4-tetrahydroisoquinoline-3-carboxylic acid] | – | IC50 (read-out: CatS IC50, Table 4, average of results obtained): 630 nM
– | NC(=O)N1CCc2c(c(-c3ccc(Cl)c(C#Cc4ccc5c(c4)CN(Cc4ccc(Cl)cc4)CC5)c3)nn2CCCN2CCOCC2)C1 [Example 465, 3-[4-Chloro-3-({2-[(4-chlorophenyl)methyl]-1,2,3,4-tetrahydroisoquinolin-7-yl}ethynyl)phenyl]-1-(3-morpholin-4-ylpropyl)-1,4,6,7-tetrahydro-5H-pyrazolo[4,3-c]pyridine-5-carboxamide] | 150 | –
50 | CS(=O)(=O)N1CCc2c(c(-c3ccc(Cl)c(C#Cc4ccc5c(c4)CN[C@H](C(=O)N4CCCC4)C5)c3)nn2CCCN2CCOCC2)C1 [Example 466, (3S)-7-({2-Chloro-5-[5-(methylsulfonyl)-1-(3-morpholin-4-ylpropyl)-4,5,6,7-tetrahydro-1H-pyrazolo[4,3-c]pyridin-3-yl]phenyl}ethynyl)-3-(pyrrolidin-1-ylcarbonyl)-1,2,3,4-tetrahydroisoquinoline] | – | –
